{"source": "patent EP0388528B1", "about": "“Carboximidamide derivatives” (KIRIN BEER KABUSHIKI KAISHA, priority 1988, dated 1990)", "key": {"beagles": {"system": "beagles", "assay": "Hemodynamic profile in beagles (intravenously)", "format": "in vivo", "details": "peak percent change from pretreatment", "method": "Hemodynamic profile of the compound of the present invention was investigated in beagles anesthetized with pentobarbital (30 mg/kg, intravenously) [test compound: N-cyano-N′-(2-nitroxyethyl)-3-pyridinecarboximidamide (compound (13))]. The thorax was opened under artificial respiration. After administering heparin in an amount of 500 units/kg, a Moravitz's cannula was introduced into the coronary sinus via the right atrium. The coronary sinus outflow was returned to the right external jagular vein. The coronary sinus outflow was measured by an electromagnetic flowmeter (MFU-2100, manufactured by Nihon Kohden) connected to the Moravitz's cannula. A cannula was inserted into the aortic arch through the subclavian artery to measure aortic blood pressure. The aortic blood pressure was measured with a pressure transducer (Nihon Kohden, TP-200T). Heart rate was monitored with a heart rate counter with R waves of electrocardiogram. All parameters were recorded on a thermosensitive recorder (WT-685G, manufactured by Nihon Kohden).\nThe compound was administered through the cannula inserted into the right femoral vein. Nicorandil was used as a control. As for respective measurement items, peak changes were expressed as percent change from the pretreatment values of the compound (13) or nicorandil."}, "[1]": {"system": "spontaneous hypertensive rats (SHR)", "assay": "Hypotensive effect on spontaneous hypertensive rats (intravenously) (Referential Example 1)-3)", "format": "in vivo", "details": "Rattus norvegicus, iv, anesthetized SHR, dose descending mean blood pressure by 20%; read-out: ED₂₀ (mg/kg, i.v.)", "method": "Rats were anesthetized with urethane-α-chloralose (1 g/kg - 25 mg/kg; intraperitoneally). Mean blood pressure was measured by a pressure transducer through a cannula inserted into the carotid artery. The compound was cumulatively administered every 30 minutes through the cannula inserted into the jagular vein. The change in blood pressure was expressed as percent of the blood pressure before the administration of the compound. And the ED₂₀ value, which was the dose required for descending blood pressure to an extent of 20%, was calculated from the dose-response curve."}, "isolated heart of rats": {"system": "isolated heart of rats", "assay": "Myocardiac injury induced by re-perfusion after ischemia (isolated heart of rats)", "details": "1×10⁻⁷ mole/min, after 30 minutes re-perfusion, mean ± SD", "method": "The cardiac muscle protecting effect of the compound of the present invention was tested by using the isolated heart of rats [test compound: N-cyano-N′-(2-nitroxyethyl)-3-pyridinecarboximidamide (compound (13))]. The Langendorff's method was used in the same manner as in the aforementioned Referential Example 1)-6. The isolated heart was perfused with a perfusate for 30 minutes and then with a perfusate containing the test compound for 10 minutes, and perfusion was stopped so that the heart was in the so-called \"ischemic state\". Pacing was performed during the ischemia. […] Parameters of cardiac function after the onset of re-perfusion was monitored for 30 minutes, and the heart was quickly freezed. The amount of ATP in the heart muscle was extracted with perchloric acid and determined by HPLC. Nicorandil was used as a control.\nThe recovery rate of the cardiac function (heart rate × left ventricular pressure) after onset of reperfusion was calculated based on the cardiac function prior to the perfusion of the compound (13) and nicorandil as 100%. The amount of ATP in the heart muscle was also determined."}, "isolated rat heart": {"system": "isolated rat heart", "assay": "Effect on isolated rat heart (Langendorff's method)", "details": "1 × 10⁻⁸ mol/min, mean ± S.D.", "method": "The effect of the compound of the present invention on heart of rats was examined by using the Langendorff's method [test compound: N-cyano-N′-(2-nitroxyethyl)-3-pyridinecarboximidamide (compound (13))]. Hearts were excised from male rats (weighing 250-350 g) and perfused at 80 cmH₂O in a Langendorff fashion. Krebs-Hensaleit bicarbonate solution (pH 7.4, 37°C) containing an 11 mM glucose which was oxygenated with 95% O₂- 5% CO₂ gas mixture was used as a perfusate. The left ventricular pressure was recorded by inserting a latex baloon into the left ventricle, and heart rate was determined from the pulse of it. Coronary perfusate flow was also measured with an electromagnetic flowmeter. The experiments were carried out by perfusing a perfusate containing the compound (13) for 10 minutes after an initial equilibration period for 30 minutes. As the control compound, nicorandil which has an effect opening potassium channel and is similar to the test compound in structure was used. The changes in the coronary perfusate flow and the cardiac function (heart rate × left ventricular pressure) caused by these compounds were expressed as percent changes from the preperfusion values of the compound (13) or nicorandil."}}}
{"smiles": "N#CNC(=NCCO[N+](=O)[O-])c1cccnc1", "note": "[Compound (13), N-cyano-N'-(2-nitroxyethyl)-3-pyridinecarboximidamide]", "values": [{"measurement": "Coronary Blood Flow", "setting": "beagles; i.v. 3.0 µg/kg", "value": "16.4±1.8", "unit": "%"}, {"measurement": "Heart Rate", "setting": "beagles; i.v. 3.0 µg/kg", "value": "1.3±1.4", "unit": "%"}, {"measurement": "Mean Aortic Blood Pressure", "setting": "beagles; i.v. 3.0 µg/kg", "value": "-15.3±2.5", "unit": "%"}, {"measurement": "Coronary Blood Flow", "setting": "beagles; i.v. 10.0 µg/kg", "value": "96.0±17.6", "unit": "%"}, {"measurement": "Heart Rate", "setting": "beagles; i.v. 10.0 µg/kg", "value": "-5.9±2.8", "unit": "%"}, {"measurement": "Mean Aortic Blood Pressure", "setting": "beagles; i.v. 10.0 µg/kg", "value": "-38.5±3.1", "unit": "%"}, {"measurement": "Coronary Blood Flow", "setting": "beagles; i.v. 30.0 µg/kg", "value": "134.1±9.2", "unit": "%"}, {"measurement": "Heart Rate", "setting": "beagles; i.v. 30.0 µg/kg", "value": "-16.2±3.3", "unit": "%"}, {"measurement": "Mean Aortic Blood Pressure", "setting": "beagles; i.v. 30.0 µg/kg", "value": "-50.7±2.1", "unit": "%"}, {"measurement": "ED20", "setting": "[1]", "value": 0.01, "unit": "mg/kg"}, {"measurement": "Amount of ATP in the heart muscle (µmole/g of dry weight)", "setting": "isolated heart of rats", "value": "11.12±1.12(6) µmole/g of dry weight"}, {"measurement": "Coronary Perfusate Flow (% change)", "setting": "isolated rat heart; perfusion 10 minutes", "value": "51.3±3.2", "unit": "% change"}, {"measurement": "Cardiac Function", "setting": "isolated rat heart; heart rate × left ventricular pressure, percent change from preperfusion", "value": "13.3±6.5", "unit": "%"}]}
